Assay results published in the NIST ThermoML archive (doi:10.1016/j.fluid.2011.11.026).

Details: Liquid, Closed cell (Static) method

FC(F)(F)C(F)(F)C(F)(F)C(F)(F)F [decafluorobutane]
Details | vapor or sublimation pressure [kPa]
263.15 K | 72.7
268.12 K | 89.6
273.09 K | 109.4
278 K | 132.4
282.99 K | 159
287.91 K | 189.3
292.97 K | 225.4
297.95 K | 265.3
302.9 K | 310.2
308.21 K | 364.3
312.88 K | 417.8
317.88 K | 481.2
323.22 K | 556.4
328.15 K | 633.7
332.91 K | 716.1
337.93 K | 811
342.91 K | 913
347.93 K | 1025.8
352.92 K | 1149.2
357.1 K | 1261.3
363.13 K | 1437.8
368.03 K | 1594.1
373.25 K | 1775.9
376.88 K | 1912.1
379.05 K | 1997.7

COC [dimethyl ether]
Details | vapor or sublimation pressure [kPa]
296.78 K | 571.9
303.46 K | 690.2
308.54 K | 793.1
312.26 K | 875.3
317.17 K | 993.3
322.08 K | 1122
327.08 K | 1265.6
332.09 K | 1423.5
337 K | 1591.1
341.97 K | 1773.8
347 K | 1976.2
351.89 K | 2187.4
356.91 K | 2422.2
361.94 K | 2675.2
366.96 K | 2946.3
371.84 K | 3230.3
376.91 K | 3546.4
379.82 K | 3739
382.88 K | 3950.3
385.83 K | 4161.9
387.81 K | 4309.6
389.81 K | 4463.7
391.86 K | 4625.6
393.81 K | 4783
395.74 K | 4943.6
